# Measurements from the supplement of paper PMC4862054.
# Values joined by “and” are separate entries in the source; they are usually repeats but may differ in a detail not shown here. Identical values can stand only once.
# Experiments:
# Conditions in all cases: incubation time: 72 h
# HCC1599 [1] = assay: normalised viability (% of control), CellTiter-Blue; higher = more viable cells (100 = DMSO, 0 = benzethonium chloride kill control)
# Procedure: (§1)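 DSRT, CellTiter-Blue viability, 72 h incubation. Signal is normalised to DMSO and benzethonium chloride controls. Value is the normalised response at dose 1.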
# MDA-MB-436 [2] = assay: as above
# Procedure: as §1
# CAL-51 [3] = assay: as above
# Procedure: as §1
# CAL-148 [4] = assay: as above
# Procedure: as §1
# MDA-MB-468 [5] = assay: as above
# Procedure: as §1
# DU-4475 [6] = assay: as above
# Procedure: as §1
# CAL-85-1 [7] = assay: as above
# Procedure: as §1
# BT-474 [8] = assay: as above
# Procedure: as §1
# MDA-MB-231 [9] = assay: as above
# Procedure: as §1
# HCC1937 [10] = assay: as above
# Procedure: as §1
# MDA-MB-453 [11] = assay: as above
# Procedure: as §1
# MFM-223 [12] = assay: as above
# Procedure: as §1
# Hs578T [13] = assay: as above
# Procedure: as §1
# CAL-120 [14] = assay: as above
# Procedure: as §1
# SK-BR-3 [15] = assay: as above
# Procedure: as §1
# BT-549 [16] = assay: as above
# Procedure: as §1
# HCC1143 [17] = assay: as above
# Procedure: as §1
# HCC1599 [18] = assay: normalised response (% of control), CellTiter-Glo; higher = more viable cells (100 = DMSO, 0 = benzethonium chloride kill control)
# In short: (§2)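 After 72 h with compound in 384-well plates, breast cancer cell lines seeded as 20 µl suspension were read for CellTox Green fluorescence at 485/520 nm. CellTiter-Glo luminescence was then read after 10 min at room temperature. Compound was present at 5 concentrations in 10-fold steps over a 10,000-fold range set per compound, and plates were normalised to 0.1 % DMSO (100) and a positive kill control (0). Values are normalised signals, each at a single concentration.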
# MDA-MB-436 [19] = assay: as above
# In short: as §2
# CAL-51 [20] = assay: as above
# In short: as §2
# CAL-148 [21] = assay: as above
# In short: as §2
# HDQ-P1 = assay: as above
# In short: as §2
# MDA-MB-468 [22] = assay: as above
# In short: as §2
# DU-4475 [23] = assay: as above
# In short: as §2
# CAL-85-1 [24] = assay: as above
# In short: as §2
# BT-474 [25] = assay: as above
# In short: as §2
# MDA-MB-231 [26] = assay: as above
# In short: as §2
# HCC1937 [27] = assay: as above
# In short: as §2
# MDA-MB-453 [28] = assay: as above
# In short: as §2
# MCF-10A = assay: as above
# In short: as §2
# MFM-223 [29] = assay: as above
# In short: as §2
# Hs578T [30] = assay: as above
# In short: as §2
# CAL-120 [31] = assay: as above
# In short: as §2
# SK-BR-3 [32] = assay: as above
# In short: as §2
# BT-549 [33] = assay: as above
# In short: as §2
# HCC1143 [34] = assay: as above
# In short: as §2
compound,measurement,setting,value
CS(=O)(=O)CCNCc1ccc(-c2ccc3ncnc(Nc4ccc(OCc5cccc(F)c5)c(Cl)c4)c3c2)o1 [Lapatinib] (1 nM),normalised viability,HCC1599 [1],114% and 97.8%
same,normalised viability,MDA-MB-436 [2],104% and 115%
same,normalised viability,CAL-51 [3],116% and 104%
same,normalised viability,CAL-148 [4],97.7% and 107%
same,normalised viability,MDA-MB-468 [5],108% and 114%
same,normalised viability,DU-4475 [6],96.4% and 93.1%
same,normalised viability,CAL-85-1 [7],90.3% and 86.8%
same,normalised viability,BT-474 [8],85.4% and 94.8%
same,normalised viability,MDA-MB-231 [9],86.6% and 96.8%
same,normalised viability,HCC1937 [10],99.3% and 105%
same,normalised viability,MDA-MB-453 [11],99.8% and 92.5%
same,normalised viability,MFM-223 [12],96.7% and 95.1%
same,normalised viability,Hs578T [13],100% and 124%
same,normalised viability,CAL-120 [14],83.3% and 87.2%
same,normalised viability,SK-BR-3 [15],92.7% and 105%
same,normalised viability,BT-549 [16],88.8% and 94.3%
same,normalised viability,HCC1143 [17],87% and 88%
same,normalised response,HCC1599 [18],90.2%
same,normalised response,MDA-MB-436 [19],99.3%
same,normalised response,CAL-51 [20],77.7%
same,normalised response,CAL-148 [21],110%
same,normalised response,HDQ-P1,95.7%
same,normalised response,MDA-MB-468 [22],106%
same,normalised response,DU-4475 [23],107%
same,normalised response,CAL-85-1 [24],93.4%
same,normalised response,BT-474 [25],105%
same,normalised response,MDA-MB-231 [26],99.5%
same,normalised response,HCC1937 [27],100%
same,normalised response,MDA-MB-453 [28],108%
same,normalised response,MCF-10A,99.3%
same,normalised response,MFM-223 [29],107%
same,normalised response,Hs578T [30],104%
same,normalised response,CAL-120 [31],100%
same,normalised response,SK-BR-3 [32],116%
same,normalised response,BT-549 [33],95.4%
same,normalised response,HCC1143 [34],105%
